Experimental data as given in ChEMBL document CHEMBL1137891, “5-Carboxamido-1,3,2-dioxaphosphorinanes, potent inhibitors of MTP” (Bioorg Med Chem Lett, 2004).

What was measured:
Cricetinae gen. sp. [1] = test: Percentage change in serum HDL cholesterol in male hamster after 3-day treatment at 15 mpk; type: functional
[2] = target: T1, Microsomal triglyceride transfer protein large subunit (Homo sapiens, UniProt P55157); test: In vitro inhibitory concentration against human Microsomal triglyceride transfer protein; type: functional
T1 sequence (P55157 whole entry): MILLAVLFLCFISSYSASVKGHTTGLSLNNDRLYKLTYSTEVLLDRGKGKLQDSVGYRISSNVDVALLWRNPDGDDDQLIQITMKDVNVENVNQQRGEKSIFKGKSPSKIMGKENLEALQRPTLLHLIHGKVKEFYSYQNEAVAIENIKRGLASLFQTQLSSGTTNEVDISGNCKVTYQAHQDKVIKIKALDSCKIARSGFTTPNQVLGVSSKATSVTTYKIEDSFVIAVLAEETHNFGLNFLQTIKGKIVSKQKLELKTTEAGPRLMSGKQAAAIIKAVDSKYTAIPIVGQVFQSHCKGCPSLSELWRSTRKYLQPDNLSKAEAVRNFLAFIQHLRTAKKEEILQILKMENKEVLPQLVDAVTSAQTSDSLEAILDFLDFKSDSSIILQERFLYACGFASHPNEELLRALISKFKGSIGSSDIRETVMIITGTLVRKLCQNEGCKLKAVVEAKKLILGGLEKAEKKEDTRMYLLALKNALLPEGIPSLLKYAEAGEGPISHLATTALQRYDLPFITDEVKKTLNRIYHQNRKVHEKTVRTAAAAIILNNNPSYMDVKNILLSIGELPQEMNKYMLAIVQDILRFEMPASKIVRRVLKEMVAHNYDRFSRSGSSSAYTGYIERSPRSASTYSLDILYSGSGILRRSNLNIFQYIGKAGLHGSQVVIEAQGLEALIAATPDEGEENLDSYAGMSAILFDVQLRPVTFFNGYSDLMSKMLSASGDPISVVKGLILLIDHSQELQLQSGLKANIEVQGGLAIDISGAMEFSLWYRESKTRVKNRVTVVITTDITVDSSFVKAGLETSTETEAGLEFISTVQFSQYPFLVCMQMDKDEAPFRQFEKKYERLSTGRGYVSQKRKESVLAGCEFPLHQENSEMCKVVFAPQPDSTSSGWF

HepG2 = test: inhibitory activity against secretion of lipoproteins apoB and apoA1 from human HepG2 cell lines; type: functional; conditions: read-out: ED50 (the source's name)
Cricetinae gen. sp. [3] = test: Concentration required for change in serum HDL cholesterol in male hamster after 3-day treatment; type: functional, Cricetulus griseus; conditions: 72 h
Mesocricetus auratus = organism: Mesocricetus auratus; test: Percentage change in serum HDL cholesterol in male hamster after 3-day treatment at 30 mpk
[4] = target: T1, Microsomal triglyceride transfer protein large subunit; test: In vitro inhibition concentration required against triglyceride transfer of human Microsomal triglyceride transfer protein; type: functional; conditions: read-out: I50
Cricetinae gen. sp. [5] = test: Percentage change in serum HDL cholesterol in male hamster after 3-day treatment at 20 mpk; type: functional, Cricetulus griseus

Structure (SMILES) | IC50 [2] | EC50 (HepG2; Homo sapiens, HepG2) | Activity (Cricetinae gen. sp. [1]) | Activity (Mesocricetus auratus) | further results
O=C(NC1COP(=O)(CCCCC2(C(=O)NCC(F)(F)F)c3ccccc3-c3ccccc32)OC1)c1ccccc1N1CCOCC1 (stereo not drawn) | 12 nM | – | -3% | – | –
O=C(NC1COP(=O)(CCCCC2(C(=O)NCC(F)(F)F)c3ccccc3-c3ccccc32)OC1)OCc1ccccc1 (stereo not drawn) | 14 nM | 40 nM | – | – | –
O=C(NC1COP(=O)(CCCCC2(C(=O)NCC(F)(F)F)c3ccccc3-c3ccccc32)OC1)OCc1ccccc1 (cis isomer) | – | – | – | – | IC50 [4]: 210 nM
O=C(NC1COP(=O)(CCCCC2(C(=O)NCC(F)(F)F)c3ccccc3-c3ccccc32)OC1)c1ccccc1-c1ccc(C(F)(F)F)cc1 (stereo in doubt; 3a) | 7 nM | – | – | -73% | EC50 (HepG2): 0.65 nM; ED50 (Cricetinae gen. sp. [3]): 3.3 mg/kg
O=C(NC1COP(=O)(CCCCC2(C(=O)NCC(F)(F)F)c3ccccc3-c3ccccc32)OC1)c1ccccc1-c1ccccn1 (trans isomer) | < 10 nM | 79 nM | -19% | – | –
O=C(NC1COP(=O)(CCCCC2(C(=O)NCC(F)(F)F)c3ccccc3-c3ccccc32)OC1)c1ccccc1-c1nc2ccccc2o1 (trans isomer) | 3 nM | – | – | -13% | –
O=C(NC1CCN(CCCCC2(C(=O)NCC(F)(F)F)c3ccccc3-c3ccccc32)CC1)c1ccccc1-c1ccc(C(F)(F)F)cc1 [LOMITAPIDE] | – | 0.8 nM | – | -92% | ED50 (Cricetinae gen. sp. [3]): 2 mg/kg

The remaining compounds from weak to strong by IC50 [2], led by results:

IC50 [2] | EC50 (HepG2; Homo sapiens, HepG2) | Structure (SMILES) | Activity (Cricetinae gen. sp. [1]) | Activity (Mesocricetus auratus) | further results
44 nM | – | O=C(NC1COP(=O)(CCCCC2(C(=O)NCC(F)(F)F)c3ccccc3-c3ccccc32)OC1)c1ccccc1-c1ccc(C(F)(F)F)cc1 (cis isomer) | – | – | Activity (Cricetinae gen. sp. [5]): -4%; EC50 (HepG2): 18 nM
22 nM | 7 nM | CCCCOP(=O)(CCCCC1(C(=O)NCC(F)(F)F)c2ccccc2-c2ccccc21)OCCCC | – | -5% | –
11 nM | 23 nM | O=C(NC1COP(=O)(CCCCC2(C(=O)NCC(F)(F)F)c3ccccc3-c3ccccc32)OC1)c1ccccc1 (trans isomer) | -12% | – | –
9 nM | 7.5 nM | O=C(NC1COP(=O)(CCCCC2(C(=O)NCC(F)(F)F)c3ccccc3-c3ccccc32)OC1)c1ccccc1-c1nc2ccccc2s1 (stereo not drawn) | -76% | – | ED50 (Cricetinae gen. sp. [3]): 4 mg/kg
5 nM | 0.9 nM | O=C(N[C@H]1CC[N@+]([O-])(CCCCC2(C(=O)NCC(F)(F)F)c3ccccc3-c3ccccc32)CC1)c1ccccc1-c1ccc(C(F)(F)F)cc1 | -77% | – | –
